Results as given in patent US20210147455A1 (SHAANXI SYNTHETIC PHARMACEUTICAL CO., LTD., priority 2018, published 2021).
Read-outs that look alike come from different tables or passages of the source.

Experiments:
[1] = Hygroscopicity study (Chinese Pharmacopoeia 2015, 9103); assay type: physicochemical
[2] = Stability experiments under 25° C.±2° C. and 65% R.H±5% R.H; conditions: 25° C./65% R.H
Excerpt: • 1. […] The results are shown in detail in the following table.

[3] = Stability experiments under 40° C.±2° C. and 75% R.H±5% R.H (accelerated test); assay type: physicochemical; conditions: 40° C./75% R.H
[4] = Urine sample
Experimental: (§1) The mice were purchased from Beijing Weili Tonghua Experimental Animal Technology Co., Ltd. Based on the weight, the mice were randomly divided into 5 groups, with each group including 3 animals.
(§2) Before the pharmacokinetic test, the mice were fasted for 16 hours. […] 200 μl of blood was collected at preset timepoint by jugular vein puncture after administration. For the animal group subjected to intravenous administration, blood was collected at minute 0, minute 15, minute 30, hour 1, hour 2, hour 4, hour 8 and hour 24 after administration. Urine was collected at hour 2, hour 4, hour 8, hour 12 and hour 24. The blood was collected in a sample tube containing EDTA and blood sample was immediately centrifuged at 4000 rpm at 4° C. for 5 minutes. The plasma was transferred to another sample tube and stored at minus 20° C.
(§3) The following method and apparatus were used:
(§4) Mobile phase: 100% of acetonitrile (3 mM ammonium acetate) and 100% of water (3 mM ammonium acetate) Quantitation method: internal standard method

[5] = in vivo; conditions: female, mouse, 1 mg/kg
Experimental: as §1, §2, §3, §4

[6] = Solubility study; conditions: Solubility
[7] = background statement; cited from earlier work
[8] = day 5, High temperature of 40° C.
[9] = day 10, High temperature of 40° C.

For CC[C@@H]([C@H](C)OP(=O)(O)O)n1ncn(-c2ccc(N3CCN(c4ccc(OC[C@@H]5CO[C@@](Cn6cncn6)(c6ccc(F)cc6F)C5)cc4)CC3)cc2)c1=O [Example 1, Posaconazole Phosphate Monocholinate], the Hygroscopic weight gain ([1]; 25° C.±1° C., saturated ammonium chloride solution, 24 hours) was 0.12%, the “Conclusion (hygroscopicity)” value ([1]; after 24 hours) was “No hygroscopicity” and the “stability (conclusion in words)” value ([2]; up to month 24) was “higher than that of the compounds in Comparative examples 1˜11”. For the same compound, the Content ([2]; month 0) was 99.87%, the Description ([2]; month 0) was “White” and the Related substance ([2]; month 0) was 0.13%. The Content ([2]; month 3) was 99.87%, the Description ([2]; month 3) was “White” and the Related substance ([2]; month 3) was 0.13%. For the same compound, the Content ([2]; month 6) was 99.87%, the Description ([2]; month 6) was “White” and the Related substance ([2]; month 6) was 0.13%. The Content ([2]; month 9) was 99.85%, the Description ([2]; month 9) was “White” and the Related substance ([2]; month 9) was 0.15%. The Content ([2]; month 12) was 99.84%, the Description ([2]; month 12) was “White” and the Related substance ([2]; month 12) was 0.16%. For the same compound, the Content ([2]; month 24) was 99.80%, the Description ([2]; month 24) was “White” and the Related substance ([2]; month 24) was 0.20%. For the same compound, the Content ([3]; month 0) was 99.87%, the Description ([3]; month 0) was “White” and the Related substance ([3]; month 0) was 0.13%. For the same compound, the Content ([3]; month 1) was 99.87%, the Description ([3]; month 1) was “White” and the Related substance ([3]; month 1) was 0.13%. For the same compound, the Content ([3]; month 2) was 99.86%, the Description ([3]; month 2) was “White” and the Related substance ([3]; month 2) was 0.14%. For the same compound, the Content ([3]; month 3) was 99.85%, the Description ([3]; month 3) was “White” and the Related substance ([3]; month 3) was 0.15%. The Content ([3]; month 6) was 99.84%, the Description ([3]; month 6) was “White” and the Related substance ([3]; month 6) was 0.16%. The Content (day 0) was 99.87%, the Description (day 0) was “White” and the Related substance (day 0) was 0.13%. The Content (day 5, High humidity of 92.5%) was 99.86%, the Description (day 5, High humidity of 92.5%) was “White” and the Related substance (day 5, High humidity of 92.5%) was 0.14%. The Content [8] was 99.87%, the Description [8] was “White” and the Related substance [8] was 0.13%. The Content (day 5, Illumination of 4500LX) was 99.87%, the Description (day 5, Illumination of 4500LX) was “White” and the Related substance (day 5, Illumination of 4500LX) was 0.13%. For the same compound, the Content (day 10, High humidity of 92.5%) was 99.86%, the Description (day 10, High humidity of 92.5%) was “White” and the Related substance (day 10, High humidity of 92.5%) was 0.14%. For the same compound, the Content [9] was 99.85%, the Description [9] was “White” and the Related substance [9] was 0.15%. For the same compound, the Content (day 10, Illumination of 4500LX) was 99.86%, the Description (day 10, Illumination of 4500LX) was “White” and the Related substance (day 10, Illumination of 4500LX) was 0.14%. For the same compound, the “Concentration of the compound in Example 1” value (from here on “Concentration of the compound”) ([4]; 0~2 h, 1 mg/kg intravenous) was 149.1 ng/mL, the “Concentration of the compound” value ([4]; 2~4 h) was 641.6 ng/mL and the “Concentration of the compound” value ([4]; 4~8 h) was 973.0 ng/mL. The “Concentration of the compound” value ([4]; 8~12 h) was 716.5 ng/mL, the “Concentration of the compound” value ([4]; 12~24 h) was 400.9 ng/mL and the concentration at 0.25 h ([5]; plasma, iv) was 5560 ng/mL. The concentration at 0.5 h ([5]; plasma, iv) was 7040 ng/mL, the concentration at 1 h ([5]; plasma, iv) was 7630 ng/mL and the concentration at 2 h ([5]; plasma, iv) was 8270 ng/mL. For the same compound, the concentration at 4 h ([5]; plasma, iv) was 7520 ng/mL, the concentration at 8 h ([5]; plasma, iv) was 7780 ng/mL and the concentration at 24 h ([5]; plasma, iv) was 7920 ng/mL. For the same compound, the concentration at 24 h ([5]; urine, intravenous) was 0 ng/mL, the solubility ([6]; organic solvent or mixture, Methanol, in methanol) was 35 mg/mL and the solubility ([6]; water, in water) was 82 mg/mL.

In the case of sulfobutyl ether-β-cyclodextrin, the preclinical toxicology finding [7] is listed as “causes vacuolization of the urothelial cells and activation of the macrophages in the liver and lung”.
